From patent US11319565B2, “Method for preparing lipoamino acids based on deep eutectic solvents” (Jiangnan University, priority 2019, dated 2022)

Assays:
[1] = Substrate solubility in natural deep eutectic solvent (polarizing microscope); assay type: physicochemical; conditions: in natural deep eutectic solvent C-Gly (choline chloride-glycerin), 60° C., 200 rpm
Method: 10 g of natural deep eutectic solvent (C-Gly) was accurately weighed and placed in a thermostatic shaking water bath at 60° C. After the temperature was constant, 10 mg of lauric acid was weighed and added thereto, and the mixture was shaken at 200 rpm for 30 min. Then a drop was taken out by a capillary and detected under a polarizing microscope. […] The final substrate solubility was calculated according to the following formula: S=mt×10/1000 (1).
Herein, S is the solubility and mt is the total addition amount of substrate.

[2] = CMC value determined by conductivity method; assay type: physicochemical; conditions: aqueous solution
Method: The CMC value is determined by a conductivity method: The relationship between the conductivity of an ionic surfactant aqueous solution and the concentration is used to draw a ∧m-C^1/2 curve, and the CMC value is derived from the turning point of the curve.
∧m=K/C. The unit of ∧m is S·m^2/mol, and the unit of C is mol/L.
For a strong electrolyte, if the temperature is constant, the molar conductivity ∧m of the strong electrolyte solution has a linear relationship with the concentration of the solution c^1/2 in an extremely low concentration range. For a colloidal electrolyte, the conductivity and molar conductivity of a dilute solution change in the same way as the strong electrolyte.

solubility [1]	Compound	CMC value [2]
24.98 g/100 g	CCCCCCCCCCCC(=O)O [lauric acid]	–
–	CCCCCCCCCCCC(=O)NCC(=O)O [lauroyl glycine]	0.0044 mol/L
–	Gemini lauroyl lysine [Gemini lauroyl amino acid]	0.0044 mol/L
